Reference: US20080153795A1, “Medicaments and methods for wound healing” (RENOVO LIMITED, priority 2006, published 2008)

Experiments:
[1] = application of 100 μg in a gel to an epidermal surface, six hours from application; cited from earlier work
[2] = system: human punch biopsy wounds; assay: Human punch biopsy wounds, re-epithelialisation by histology; assay type: in vivo; settings: 100 μl intradermal 10 minutes before wounding, 3 mm punch biopsy
Text: Healthy male and post-menopausal female volunteers were chosen as the subjects of the study. 44 healthy subjects were recruited to the study, of whom, 40 were healthy males (aged 18-75 years) and 4 were post-menopausal females (aged 53-69 years). The average age of subjects recruited to this study was 42 years. The post-menopausal status of female subjects was confirmed by quantification of serum levels of oestradiol and follicle stimulating hormone (FSH). Serum levels of oestradiol were required to be <90 pmol/L, and follicle stimulating hormone levels >31 IU/L.
Each subject had three wounds treated with active drug, one corresponding to each of three concentrations of the medicaments produced; a fourth wound was treated with placebo control. The test medicaments and placebo control were each administered intradermally, as a single dose, at a volume of 100 μl per wound site (the upper, inner aspect of each arm), 10-minutes before wounding.
Subjects received 3 mm punch biopsies at the sites where the medicaments had been administered. After wounding, all sites received moist wound healing dressings (Standard Care).
Biopsy sites were excised, using a 5 mm punch biopsy, three days after wounding. Excised wounds were preserved for histological assessment of re-epithelialisation by image analysis. All histological assessments of early wound healing events were made using preserved 5 micron-thickness wound sections taken from the widest part of each excised biopsy site. Sections were stained with Haematoxylin and Eosin to aid visualisation of structural features, and measurements made using image analysis software. The distance traveled by the epithelium is derived from two histological measurements: the freehand total wound diameter and the freehand non-epithelialised wound diameter. […] Percentage re-epithelialisation for the new epithelium was calculated as a proportion of the total wound diameter. The average percentage re-epithelialisation value was calculated from the 44 wounds of each treatment group.

| Compound | applied oestradiol found in the skin or having passed through the skin [1] | re-epithelialisation three days after wounding ([2]; 0.02 μg/100 μl (0.00002%) medicament) | re-epithelialisation three days after wounding ([2]; 0.1 μg/100 μl (0.0001%) medicament) | re-epithelialisation three days after wounding ([2]; 0.2 μg/100 μl (0.0002%) medicament) |
| --- | --- | --- | --- | --- |
| C[C@]12CC[C@@H]3c4ccc(O)cc4CC[C@H]3[C@@H]1CC[C@@H]2O [oestradiol] | 15.7 µg | – | – | – |
| C[C@]12CC[C@@H]3c4ccc(O)cc4CC[C@H]3[C@@H]1CC[C@@H]2O [17β-oestradiol] | – | 37.4% | 42.3% | 42.6% |
